Measurements reported in patent EP0033503A2, “Medicaments with cytostatic activity and use of cyclic compounds, in which the heterocyclic N-ring atoms are substituted by several glycidyl groups, in pharmaceutical compositions” (Henkel Kommanditgesellschaft auf Aktien, priority 1980, dated 1981).
Read-outs that look alike come from different tables or passages of the source.

Test system: Tumorart P 388 (Leukämie)
Assay: Survival of mice bearing P 388 leukemia (NCI protocol 1200), T/C
Format: in vivo, Maus
Settings: for response vs control in vivo at 200 mg/kg: P388, 200 mg/kg per single dose
From the text: Die nachfolgenden Versuche wurden durchgeführt nach Testvorschriften des National Cancer Institute Bethesda, Maryland 200014, veröffentlicht in Cancer Chemotherapy Reports" Part. 3, September 1972, Vol. 3, Nr. 2. Als Wirksubstanz wurde 1,3-Diglycidyl-benzimidazolon des i vorstehenden Beispiels 1 verwendet. Die Substanz wurde als wäßrige, 1%ige Injektionslösung unmittelbar vor der Applikation frisch hergestellt.
Bei Mäusen wurde gemäß Protokoll 1200 (Seite 91, c.) die Tumorart P 388 (Leukämie) i.p. mit 10^6 Zellen/Maus gesetzt. Die unbehandelten Tiere hatten eine mittlere überlebensdauer von 9,9 Tagen.
Es wird der Wirkstoff appliziert. Der Wirkstoff wird dabei in 9.Gaben in unterschiedlichen Versuchsreihen einmal zu je 200 mg/kg und in einer anderen zu 100 mg/kg und in einer dritten Versuchsreihe zu je 50 mg/kg verabreicht. In beiden Fällen wird eine signifikante Verlängerung der Lebensdauer der behandelten Testtiere gegenüber der Kontrollgruppe der nicht behandelten Tiere erzielt. […] Bei der Testgruppe mit der Dosis von 100 mg/kg beträgt die durchschnittliche Lebenserwartung der Versuchstiere 18 Tage, T/C 181 %. Die Gruppe mit der Dosis 50 mg/kg hatte eine durchschnittliche Lebenserwartung von 15,3 Tagen, T/C 154 %. […]

## CC1(C)C(=O)N(CC2CO2)C(=O)N1CN1C(=O)N(CC2CO2)C(=O)C1(C)C (centres unmarked) [[drawing] r20]
Mus musculus, 9 doses, first test series, read-out: Verlängerungsrate T/C (Testergebnis in % T/C)
  response vs control in vivo at 200 mg/kg: 153%

## O=c1ccn(CC2CO2)c(=O)n1Cn1c(=O)ccn(CC2CO2)c1=O (centres unmarked) [[drawing] the 18th table r17]
Mus musculus, P388, 50 mg/kg per single dose, first series, unit inferred, read-out: Testergebnis T/C (T/C-Wert)
  response vs control in vivo at 50 mg/kg: 115%
Mus musculus, P388, 100 mg/kg per single dose, first series, unit inferred, read-out: Testergebnis T/C (T/C-Wert)
  response vs control in vivo at 100 mg/kg: 139%
Mus musculus, first series, unit inferred, read-out: Testergebnis T/C (T/C-Wert)
  response vs control in vivo at 200 mg/kg: 186%

## Diglycidyl-butylglykoluril [Beispiel 4]
50 mg/kg per single dose, 9 doses
  durchschnittliche Lebenserwartung der Versuchstiere: 16,3 Tage
50 mg/kg per single dose, 9 doses, first test series
  Verlängerungsrate T/C (Testergebnis in % T/C): 164%
100 mg/kg per single dose, 9 doses
  durchschnittliche Lebenserwartung der Versuchstiere: 19,3 Tage
100 mg/kg per single dose, 9 doses, first test series
  Verlängerungsrate T/C (Testergebnis in % T/C): 194%
200 mg/kg per single dose, 9 doses
  durchschnittliche Lebensdauer der Testgruppe: 27 Tage
200 mg/kg per single dose, 9 doses, first test series
  Verlängerungsrate T/C (Testergebnis in % T/C): 272%
200 mg/kg per single dose, test group of 6 female mice
  Versuchstiere, die die Testdauer von 30 Tagen überleben: ein Versuchstier
